According to US20200022963A1, “PHARMACEUTICAL COMPOSITION COMPRISING BETAHISTINE” (Otolanum AG, priority 2017, published 2020):
Where two headings read alike, the source gives them in different places.

Tests used:
[1] = Pharmacokinetic profile after single oral, intranasal and intravenous betahistine in beagle dogs, Example 5; assay type: in vivo; conditions: beagle, dog, in vivo
Method: In this study, the pharmacokinetic profile of betahistine was evaluated after a single dose administration of betahistine in male and female beagle dogs (age 5-7 months; weight of 5-11 kg, within a range of 3 kg for each sex) for three routes of administration: oral, intranasal, and intravenous.
On Day 1 of the study, betahistine (BH) was delivered orally at a dose of 12 mg/kg, 24 mg/kg, or 48 mg/kg. Each treatment group comprised 8 animals (4 males and 4 females). For pharmacokinetic assessment, plasma samples were collected prior to dosing, and then at 5, 10, 20 and 30 min, 1, 2, 3, 6, 24 hours after dosing.
On Day 8 of the study, the animals that received oral BH at a dose of 12 mg/kg were administered the test betahistine composition intranasally at a dose of 40 mg betahistine dihydrochloride; the animals that received oral BH at a dose of 24 mg/kg were administered the test betahistine composition intranasally at a dose of 80 mg betahistine dihydrochloride; and the animals that received oral BH at a dose of 48 mg/kg were administered the test betahistine composition intranasally at a dose of 120 mg betahistine dihydrochloride. The test betahistine composition was delivered intranasally in a single dose via an Aptar nasal spray pump device at a total dose level of 40, 80 and 120 mg of betahistine dihydrochloride. Plasma samples were collected prior to dosing, and then at 5, 10, 20 and 30 min, 1, 2, 3, 6, 24 hours after dosing.
On Day 15 of the study, the animals that received oral BH at a dose of 12 mg/kg and the test betahistine composition intranasally at a dose of 40 mg betahistine dihydrochloride were administered a bolus intravenous injection of betahistine at a dose of 0.44 mg/kg. Plasma samples were collected prior to dosing, and then at 5, 10, 20 and 30 min, 1, 2, 3, 6, 24 hours after dosing.
Betahistine 13CD3 dihydrochloride and 2-pyridylacetic acid-D4 hydrochloride were used as respective internal standards. The calibration range for betahistine was 0.05-250 ng/mL and for 2-PAA 2.00-3000 ng/mL using a plasma sample volume of 0.50 mL.
For determination of betahistine, the method involved liquid-liquid extraction, for 2-PAA, the method involved protein precipitation. Plasma samples were prepared for betahistine by extraction under basic conditions with an organic solvent, then the organic phase was dried, reconstituted and transferred for LC/MS-MS analysis. […] Sample analysis was performed using reversed phase chromatography.

[2] = cited from earlier work; for Tmax: 2-PAA after oral betahistine
[3] = female, inhaled or intranasal, 6 mg/kg
[4] = female, inhaled or intranasal, 13 mg/kg
[5] = female, inhaled or intranasal, 17.7 mg/kg
[6] = male, inhaled or intranasal, 5 mg/kg
[7] = male, inhaled or intranasal, 9.8 mg/kg
[8] = male, inhaled or intranasal, 15.8 mg/kg

O=C(O)Cc1ccccn1 [2-PAA, 2-pyridylacetic acid]
AUC(0-inf) [1, 3]: 19000 ng·h/mL
AUC(0-t)/D [1, 3]: 3170 ± 812 hr*ng/mL/(mg/kg)
Cmax [1, 3]: 5570 ng/mL
Cmax/D [1, 3]: 928 ng/mL/(mg/kg)
Tmax [1, 3]: 0.75 h
half-life [1, 3]: 2.66 h
AUC(0-t) ([1]; female, inhaled or intranasal, 6 mg/kg, AUC(0-6)): 14800 ng·h/mL
AUC(0-t) ([1]; female, inhaled or intranasal, 6 mg/kg, AUC(0-t)): 19000 ng·h/mL
AUC(0-inf) [1, 4]: 25300 ng·h/mL
AUC(0-t)/D [1, 4]: 1940 ± 838 hr*ng/mL/(mg/kg)
Cmax [1, 4]: 7030 ng/mL
Cmax/D [1, 4]: 541 ng/mL/(mg/kg)
Tmax [1, 4]: 1 h
half-life [1, 4]: 2.97 h
AUC(0-t) ([1]; female, inhaled or intranasal, 13 mg/kg, AUC(0-6)): 19300 ng·h/mL
AUC(0-t) ([1]; female, inhaled or intranasal, 13 mg/kg, AUC(0-t)): 25200 ng·h/mL
AUC(0-6) [1, 5]: 10600 ng·h/mL
AUC(0-inf) [1, 5]: 14100 ng·h/mL
AUC(0-t)/D [1, 5]: 790 ± 307 hr*ng/mL/(mg/kg)
Cmax [1, 5]: 3810 ng/mL
Cmax/D [1, 5]: 215 ng/mL/(mg/kg)
T1/2 [1, 5]: 3.46 h
AUC(0-t) ([1]; female, inhaled or intranasal, 17.7 mg/kg, AUC(0-t)): 14000 ng·h/mL
AUC(0-6) ([1]; female, iv, 0.44 mg/kg): 1540 ± 101 ng·h/mL
AUC(0-inf) ([1]; female, iv, 0.44 mg/kg): 1860 ± 188 ng·h/mL
AUC(0-t) ([1]; female, iv, 0.44 mg/kg): 1830 ± 209 ng·h/mL
AUC(0-t)/D ([1]; female, iv, 0.44 mg/kg): 4160 ± 475 hr*ng/mL/(mg/kg)
Cmax ([1]; female, iv, 0.44 mg/kg): 722 ± 75.3 ng/mL
Cmax/D ([1]; female, iv, 0.44 mg/kg): 1640 ± 171 ng/mL/(mg/kg)
T1/2 ([1]; female, iv, 0.44 mg/kg): 2.78 h
Tmax (median) ([1]; female, iv, 0.44 mg/kg): 0.18 h
AUC(0-6) ([1]; female, po, 12 mg/kg): 41300 ng·h/mL
AUC(0-int) ([1]; female, po, 12 mg/kg): 57200 ± 11300 ng·h/mL
AUC(0-t) ([1]; female, po, 12 mg/kg): 57200 ± 11300 ng·h/mL
AUC(0-t)/D ([1]; female, po, 12 mg/kg): 4760 ± 940 hr*ng/mL/(mg/kg)
Cmax ([1]; female, po, 12 mg/kg): 14500 ng/mL
Cmax/D ([1]; female, po, 12 mg/kg): 1210 ng/mL/(mg/kg)
T1/2 ([1]; female, po, 12 mg/kg): 2.12 ± 0.110 h
AUC(0-6) ([1]; female, po, 24 mg/kg): 69300 ng·h/mL
AUC(0-int) ([1]; female, po, 24 mg/kg): 110000 ± 14300 ng·h/mL
AUC(0-t) ([1]; female, po, 24 mg/kg): 110000 ± 14300 ng·h/mL
AUC(0-t)/D ([1]; female, po, 24 mg/kg): 4590 ± 594 hr*ng/mL/(mg/kg)
Cmax ([1]; female, po, 24 mg/kg): 21300 ng/mL
Cmax/D ([1]; female, po, 24 mg/kg): 885 ng/mL/(mg/kg)
T1/2 ([1]; female, po, 24 mg/kg): 2.14 ± 0.176 h
Tmax (median) ([1]; female, po, 24 mg/kg): 2 h
AUC(0-6) ([1]; female, po, 48 mg/kg): 144000 ng·h/mL
AUC(0-int) ([1]; female, po, 48 mg/kg): 208000 ± 35000 ng·h/mL
AUC(0-t) ([1]; female, po, 48 mg/kg): 237000 ± 63500 ng·h/mL
AUC(0-t)/D ([1]; female, po, 48 mg/kg): 4930 ± 1320 hr*ng/mL/(mg/kg)
Cmax ([1]; female, po, 48 mg/kg): 37500 ng/mL
Cmax/D ([1]; female, po, 48 mg/kg): 781 ng/mL/(mg/kg)
T1/2 ([1]; female, po, 48 mg/kg): 2.24 ± 0.170 h
Tmax (median) ([1]; female, po, 48 mg/kg): 2 h
AUC(0-6) [1, 6]: 9440 ng·h/mL
AUC(0-inf) [1, 6]: 12200 ng·h/mL
AUC(0-t) [1, 6]: 12200 ng·h/mL
AUC(0-t)/D [1, 6]: 2440 ± 2160 hr*ng/mL/(mg/kg)
Cmax [1, 6]: 3480 ng/mL
Cmax/D [1, 6]: 695 ng/mL/(mg/kg)
T1/2 [1, 6]: 2.96 h
Tmax (median) [1, 6]: 0.5 h
AUC(0-inf) [1, 7]: 10400 ng·h/mL
AUC(0-t)/D [1, 7]: 1060 ± 368 hr*ng/mL/(mg/kg)
Cmax [1, 7]: 3320 ng/mL
Cmax/D [1, 7]: 339 ng/mL/(mg/kg)
Tmax [1, 7]: 1 h
half-life [1, 7]: 2.86 h
AUC(0-t) ([1]; male, inhaled or intranasal, 9.8 mg/kg, AUC(0-6)): 8450 ng·h/mL
AUC(0-t) ([1]; male, inhaled or intranasal, 9.8 mg/kg, AUC(0-t)): 10400 ng·h/mL
AUC(0-inf) [1, 8]: 12800 ng·h/mL
AUC(0-t)/D [1, 8]: 806 ± 197 hr*ng/mL/(mg/kg)
Cmax [1, 8]: 3930 ng/mL
Cmax/D [1, 8]: 249 ng/mL/(mg/kg)
Tmax [1, 8]: 1 h
half-life [1, 8]: 2.87 h
AUC(0-t) ([1]; male, inhaled or intranasal, 15.8 mg/kg, AUC(0-6)): 10200 ng·h/mL
AUC(0-t) ([1]; male, inhaled or intranasal, 15.8 mg/kg, AUC(0-t)): 12700 ng·h/mL
AUC(0-6) ([1]; male, iv, 0.44 mg/kg): 1450 ± 388 ng·h/mL
AUC(0-inf) ([1]; male, iv, 0.44 mg/kg): 1760 ± 642 ng·h/mL
AUC(0-t) ([1]; male, iv, 0.44 mg/kg): 1740 ± 641 ng·h/mL
AUC(0-t)/D ([1]; male, iv, 0.44 mg/kg): 3960 ± 1460 hr*ng/mL/(mg/kg)
Cmax ([1]; male, iv, 0.44 mg/kg): 736 ± 53.5 ng/mL
Cmax/D ([1]; male, iv, 0.44 mg/kg): 1670 ± 121 ng/mL/(mg/kg)
T1/2 ([1]; male, iv, 0.44 mg/kg): 2.59 h
Tmax (median) ([1]; male, iv, 0.44 mg/kg): 0.13 h
AUC(0-6) ([1]; male, po, 12 mg/kg): 37300 ng·h/mL
AUC(0-int) ([1]; male, po, 12 mg/kg): 50500 ± 21100 ng·h/mL
AUC(0-t) ([1]; male, po, 12 mg/kg): 50500 ± 21100 ng·h/mL
AUC(0-t)/D ([1]; male, po, 12 mg/kg): 4210 ± 1760 hr*ng/mL/(mg/kg)
Cmax ([1]; male, po, 12 mg/kg): 12700 ng/mL
Cmax/D ([1]; male, po, 12 mg/kg): 1060 ng/mL/(mg/kg)
T1/2 ([1]; male, po, 12 mg/kg): 2.21 ± 0.160 h
AUC(0-int) ([1]; male, po, 24 mg/kg): 107000 ± 28200 ng·h/mL
AUC(0-t)/D ([1]; male, po, 24 mg/kg): 4460 ± 1180 hr*ng/mL/(mg/kg)
Cmax ([1]; male, po, 24 mg/kg): 26400 ng/mL
Cmax/D ([1]; male, po, 24 mg/kg): 1100 ng/mL/(mg/kg)
T1/2 ([1]; male, po, 24 mg/kg): 2.04 ± 0.107 h
Tmax ([1]; male, po, 24 mg/kg): 1.5 h
AUC(0-t) ([1]; male, po, 24 mg/kg, AUC(0-6)): 76400 ng·h/mL
AUC(0-t) ([1]; male, po, 24 mg/kg, AUC(0-t)): 107000 ± 28200 ng·h/mL
AUC(0-6) ([1]; male, po, 48 mg/kg): 178000 ng·h/mL
AUC(0-int) ([1]; male, po, 48 mg/kg): 286000 ± 39300 ng·h/mL
AUC(0-t) ([1]; male, po, 48 mg/kg): 286000 ± 39200 ng·h/mL
AUC(0-t)/D ([1]; male, po, 48 mg/kg): 5950 ± 817 hr*ng/mL/(mg/kg)
Cmax ([1]; male, po, 48 mg/kg): 50900 ng/mL
Cmax/D ([1]; male, po, 48 mg/kg): 1060 ng/mL/(mg/kg)
T1/2 ([1]; male, po, 48 mg/kg): 2.10 ± 0.181 h
Tmax (median) ([1]; male, po, 48 mg/kg): 2 h
peak concentration ([2]; human, 2-PAA after oral betahistine 16 mg, Val et al.): 522 ng/mL
Tmax ([2]; human, Chen et al. (2003)): 1 h
Tmax ([2]; human, Moorthy et al.): 1.5 h
pharmacological activity ([2]; metabolite formed by monoamine oxidase): no pharmacological activity
